Data taken from patent publication EP0796866A1, “Antithrombotic diamides” (ELI LILLY AND COMPANY, priority 1996, dated 1997).
Structures can show the parent of a compound that is named as a salt.

Assays:
Assay type in all cases: biochemical
human or animal plasma [1] = experiment: prothrombin time (PT) coagulation assay in plasma; conditions: concentration required to double the clotting time, linear extrapolation; Thromboplastin-C reagent
Experimental: (§1) Dog plasma and rat plasma are obtained from conscious mixed-breed hounds (either sex, hazelton-LRE, Kalamazoo, Michigan, U.S.A.) or from anesthetized male Sprague-Dawley rats (Harlan Sprague-Dawley, Inc., Indianapolis, Indiana, U.S.A.) by venipuncture into 3.8 percent citrate. Fibrinogen is prepared from in-date ACD human blood as the fraction I-2 according to previous procedures and specifications. Smith, Biochem. J., 185, 1-11 (1980); and Smith, et al., Biochemistry, 11, 2958-2967 (1972). Human fibrinogen is also purchased as 98 percent pure/plasmin free from American Diagnostica, Greenwich, Connecticut. Coagulation reagents ACTIN, Thromboplastin, and Human plasma are from Baxter Healthcare Corp., Dade Division, Miami, Florida. […]
(§2) Coagulation assay procedures are as previously described. […] The thrombin time (TT) is measured by adding 0.05 ml saline and 0.05 ml thrombin (10 NIH units/ml) to 0.05 ml test plasma. The activated partial thromboplastin time (APTT) is measured by incubation of 0.05 ml test plasma with 0.05 ml Actin reagent for 120 seconds followed by 0.05 ml CaCl2 (0.02 M). The prothrombin time (PT) is measured by adding 0.05 ml saline and 0.05 ml Thromboplastin-C reagent to 0.05 ml test plasma. […] Each of the particularly preferred examples of the invention listed above was determined to have a TT value of less than 100 ng/mL. […]

human thrombin = target: T1, human thrombin (Homo sapiens, UniProt P00734); experiment: inhibition of the amidase activity of thrombin (chromogenic substrate), Kass; conditions: hypothetical equilibrium (association) constant thrombin + test compound; mean over a range of concentrations; pH 7.4
T1 construct: purified human thrombin; purchased Enzyme Research Laboratories, South Bend, Indiana
Experimental: The assay is carried out by mixing 50 µl buffer (0.03M Tris, 0.15M NaCl, pH 7.4) with 25 µl of human thrombin solution (purified human thrombin, Enzyme Research Laboratories, South Bend, Indiana, at 8 NIH units/ml) and 25 µl of test compound in a solvent (50% aqueous methanol (v:v)). Then 150 µl of an aqueous solution of the chromogenic substate (at 0.25 mg/ml) are added and the rates of hydrolysis of the substrate are measured by monitoring the reactions at 405 nm for the release of p-nitroaniline. Standard curves are constructed by plotting free thrombin concentration against hydrolysis rate. The hydrolysis rates observed with test compounds are then converted to "free thrombin" values in the respective assays by use of the standard curves. The bound thrombin (bound to test compound) is calculated by subtracting the amount of free thrombin observed in each assay from the known initial amount of thrombin used in the assay. The amount of free inhibitor in each assay is calculated by subtracting the number of moles of bound thrombin from the number of moles of added inhibitor (test compound). […]
Kass is calculated for a range of concentrations of test compounds and the mean value reported in units of liter per mole. […] For example, each of the particularly preferred examples of the invention listed above was determined to have a Kass of at least 5 X 10^6 L/mole.

human or animal plasma [2] = experiment: activated partial thromboplastin time (APTT) coagulation assay in plasma; conditions: concentration required to double the clotting time, linear extrapolation; Actin reagent, CaCl2
Experimental: as §1, §2

human or animal plasma [3] = experiment: thrombin time (TT) coagulation assay in plasma; conditions: concentration required to double the clotting time, linear extrapolation; thrombin 10 NIH units/ml
Experimental: as §1, §2

## O=C(O)CN[C@H](CC1CCCCC1)C(=O)N1CCC[C@H]1C(=O)NC/C=C/c1c[nH]cn1 [Example 7, N-(carboxymethyl)-D-cyclohexylalanyl-N-[(E)-3-(imidazol-4-yl)prop-2-enyl]-L-prolinamide hydrochloride]
Human or animal plasma [1]
  PT: 430 ng/mL
Human thrombin
  Kd: 0.0175 µM
Human or animal plasma [2]
  APTT: 280 ng/mL
Human or animal plasma [3]
  TT: 30 ng/mL

## O=C(O)CN[C@H](CC1CCCCC1)C(=O)N1CCC[C@H]1C(=O)NCCCc1c[nH]cn1 [Example 8, N-(carboxymethyl)-D-cyclohexylalanyl-N-[3-(imidazol-4-yl)propyl]-L-prolinamide hydrochloride]
Human or animal plasma [1]
  PT: 380 ng/mL
Human thrombin
  Kd: 0.0125 µM
Human or animal plasma [2]
  APTT: 170 ng/mL
Human or animal plasma [3]
  TT: 20 ng/mL
